In ChEMBL document CHEMBL1201862, “PubChem BioAssay data set” (2004):
Structures can show the parent of a compound that is named as a salt.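 Growth conditions: 96-well plates. Treatment: test compound, 48 hours, 5 concentrations. Analysis: linear interpolation between bracketing concentrations; unreached endpoints set to highest concentration. GI50 is the concentration that inhibits growth by half.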 Calls of active or inactive are those of the source. Rule as the data show it: active = GI50 up to about 1.1 µM and inactive = higher.

How the values were obtained:
Test in all cases: NCI-60 cell line screen, 48 h
LOX IMVI = test system: LOX IMVI
HCC 2998 = test system: HCC 2998
NCI-H23 = test system: NCI-H23
COLO 205 = test system: COLO 205
RPMI-8226 = test system: RPMI-8226
SR = test system: SR
OVCAR-4 = test system: OVCAR-4
MCF7 = test system: MCF7
HT-29 = test system: HT-29
M14 = test system: M14
SK-MEL-5 = test system: SK-MEL-5
MOLT-4 = test system: MOLT-4
T47D = test system: T47D
IGROV-1 = test system: IGROV-1
HOP-62 = test system: HOP-62
OVCAR-5 = test system: OVCAR-5
SN12C = test system: SN12C
SW-620 = test system: SW-620
HOP-92 = test system: HOP-92
CAKI-1 = test system: CAKI-1

Measured: GI50

O=C1c2c(O)cccc2-c2nn(CCNCCO)c3ccc(NCCNCCO)c1c23 [LOSOXANTRONE HYDROCHLORIDE]
active: LOX IMVI 0.0667 µM | HCC 2998 0.137 µM | NCI-H23 0.0338 µM | COLO 205 0.158 µM | RPMI-8226 0.432 µM | SR < 0.01 µM | OVCAR-4 0.605 µM | MCF7 < 0.01 µM | HT-29 0.303 µM | M14 0.244 µM | SK-MEL-5 0.0955 µM | MOLT-4 < 0.01 µM | T47D 0.105 µM | IGROV-1 0.337 µM | HOP-62 < 0.0169 µM | OVCAR-5 0.29 µM | SN12C 0.0182 µM | SW-620 0.116 µM | HOP-92 0.0285 µM | CAKI-1 0.0552 µM
